Holding throughout (assay): Antibacterial activity, MIC by agar dilution (CLSI)
Common to all, as to format: cell-based

One assay has as its system E. coli 13351. The note with it: Escherichia coli, 13351, E. coli 13351; compound tested alone; read-out: MIC. On the procedure:
(§1) The biological activity of representative compounds according to the invention against various bacterial strains was investigated. In a typical study, overnight grown bacterial cultures were diluted appropriately and inoculated on the agar media containing doubling dilutions of the test compounds. Observations for growth or no growth was performed after 16-20 hours of incubation at 35±2° C. in the ambient air. The overall procedure was performed as per Clinical and Laboratory Standards Institute (CLSI) recommendations, (Clinical and Laboratory Standards Institute (CLSI), Performance Standards for Antimicrobial Susceptibility Testing, 20th Informational Supplement, M07-A9, Volume 32, No. 2, 2012). Molten Mueller Hinton Agar (BD, USA) containing serial dilutions of each antibacterial agent were poured on to the plates and allowed to solidify. Appropriate suspensions from the freshly grown cultures were prepared in normal saline so that about 10^4CFU/spot of the organism was delivered on to the drug containing agar plates using automated multipoint inoculator (Mast, UK). The plates were incubated in Biochemical oxygen demand (BOD) incubator at 37° C. for 18 hours and then examined for growth.
(§2) Method for the determination of MIC: The Minimum Inhibitory Concentration (MIC) determination for the combinations was carried out in Muller Hinton Agar (MHA) (BD, USA) according to Clinical and Laboratory Standards Institute (CLSI) recommendations, (Clinical and Laboratory Standards Institute (CLSI), Performance Standards for Antimicrobial Susceptibility Testing, 20th Informational Supplement, M 100-S20, Volume 30, No. 1, 2010). In short, the test strains were adjusted to deliver about 10^4CFU per spot with a multipoint inoculator (Applied Quality Services, UK). The plates were poured with MHA containing doubling concentration range of representative compounds according to present invention. The plates were inoculated and were incubated at 35° C. for 18 hour. […] The Table 2 depicts the antibacterial activity profile of compounds according to present invention against various multidrug resistant bacterial strains.

The subject of another assay is E. coli 13352. The conditions noted are these: Escherichia coli, 13352, E. coli 13352; compound tested alone; read-out: MIC. As to the method: as §1, §2
Another assay has as its system E. coli 13353. The conditions noted are these: Escherichia coli, 13353, E. coli 13353; compound tested alone; read-out: MIC. On the procedure:
as §1, §2

The next assay relates to E. coli 7 MP. The note with it: Escherichia coli, 7MP, compound tested alone, read-out: MIC. On the procedure:
as §1, §2

For another assay, the system named is E. coli M 138. The note with it: Escherichia coli, M138, E. coli M 138; compound tested alone; read-out: MIC. On the procedure:
as §1, §2

The test system of another assay is E. coli M 36. The conditions noted are these: Escherichia coli, M36, E. coli M 36; compound tested alone; read-out: MIC. On the procedure: as §1, §2
For the next assay, the system named is E. coli M 49. The note with it: Escherichia coli, M49, E. coli M 49; compound tested alone; read-out: MIC. As to the method: as §1, §2
Another assay deals with E. coli M 50. The conditions noted are these: Escherichia coli, M50, E. coli M 50; compound tested alone; read-out: MIC. As to the method:
as §1, §2

Assay [1] relates to K. pneumoniae ATCC 700603. The note with it: Klebsiella pneumoniae, ATCC700603, compound tested alone, read-out: MIC. As to the method: as §1, §2
The subject of a further assay is K. pneumoniae H 521. The note with it: Klebsiella pneumoniae, H521, K. pneumoniae H 521; compound tested alone; read-out: MIC. As to the method:
as §1, §2

The subject of the next assay is K. pneumoniae H 522. The note with it: Klebsiella pneumoniae, H522, K. pneumoniae H 522; compound tested alone; read-out: MIC. On the procedure: as §1, §2
Another assay concerns K. pneumoniae H 523. The note with it: Klebsiella pneumoniae, H523, K. pneumoniae H 523; compound tested alone; read-out: MIC. As to the method:
as §1, §2

Another assay relates to K. pneumoniae H 525. The conditions noted are these: Klebsiella pneumoniae, H525, K. pneumoniae H 525; compound tested alone; read-out: MIC. As to the method: as §1, §2

The values below come from patent US10501464B2, “7-oxo-6-(sulfooxy)-1,6-diazabicyclo[3.2.1]octane-2-carboxamide containing compounds and their use in treating bacterial infections” (WOCKHARDT LIMITED, priority 2015, dated 2019).

Structures can show the parent of a compound that is named as a salt.

`O=C(NOC[C@H]1C[C@H](N2CCOCC2)CN1)[C@@H]1CC[C@@H]2CN1C(=O)N2OS(=O)(=O)O` [Example 2, Trifluoro acetic acid salt of (2S,5R)-N-{[(2R,4S)-4-(morpholin-4-yl)pyrrolidin-2-yl]methoxy}-7-oxo-6-(sulfooxy)-1,6-diazabicyclo[3.2.1]octane-2-carboxamide]: the MIC (usually the lowest concentration that inhibits growth of the organism) was 1 µg/mL in the assay with E. coli 13351; 1 µg/mL in the assay with E. coli 13352; 1 µg/mL with E. coli 13353; 2 µg/mL with E. coli 7 MP; 1 µg/mL in the assay with E. coli M 138; 1 µg/mL in the assay on E. coli M 36. The MIC with E. coli M 49 was 4 µg/mL; in the assay on E. coli M 50 it was 1 µg/mL; in assay [1], greater than 32 µg/mL; in the assay on K. pneumoniae H 521, 1 µg/mL; in the assay with K. pneumoniae H 522, 1 µg/mL; with K. pneumoniae H 523, 1 µg/mL. In addition, the MIC in the assay with K. pneumoniae H 525 came to 1 µg/mL.
Consider `O=C(NOCC1C[C@H](N2CCOCC2)CN1)[C@@H]1CC[C@@H]2CN1C(=O)N2OS(=O)(=O)O` (stereo partly drawn) [Example 17], for which the MIC in the assay with E. coli 13351 came out at 8 µg/mL; in the assay on E. coli 13352 it was 8 µg/mL; in the assay with E. coli 13353, 4 µg/mL; in the assay with E. coli 7 MP, 16 µg/mL; in the assay with E. coli M 138, 4 µg/mL; with E. coli M 36, 4 µg/mL. The MIC is 16 µg/mL in the assay on E. coli M 49; 8 µg/mL in the assay on E. coli M 50; greater than 32 µg/mL in assay [1]; 8 µg/mL in the assay on K. pneumoniae H 521; 8 µg/mL in the assay on K. pneumoniae H 522; 8 µg/mL in the assay on K. pneumoniae H 523. Besides, the MIC with K. pneumoniae H 525 worked out at 8 µg/mL.
On to `O=C(NOCC1C[C@H](N2CCCCC2)CN1)[C@@H]1CC[C@@H]2CN1C(=O)N2OS(=O)(=O)O` (stereo partly drawn) [Example 18], for which the MIC was 2 µg/mL in the assay with E. coli 13351; 2 µg/mL in the assay on E. coli 13352; 1 µg/mL in the assay with E. coli 13353; 4 µg/mL with E. coli 7 MP; 2 µg/mL with E. coli M 138; 2 µg/mL in the assay with E. coli M 36. The minimum inhibitory concentration (MIC) with E. coli M 49 is 16 µg/mL; in the assay with E. coli M 50, 2 µg/mL; in assay [1], greater than 32 µg/mL; with K. pneumoniae H 521, 2 µg/mL; in the assay on K. pneumoniae H 522, 2 µg/mL; with K. pneumoniae H 523, 2 µg/mL. Besides, the MIC in the assay on K. pneumoniae H 525 came to 2 µg/mL.
For `O=C(NOCC1C[C@@H](N2CCCCC2)CN1)[C@@H]1CC[C@@H]2CN1C(=O)N2OS(=O)(=O)O` (stereo partly drawn) [Example 19], the MIC was 8 µg/mL in the assay on E. coli 13351; 8 µg/mL in the assay with E. coli 13352; 4 µg/mL in the assay with E. coli 13353; greater than 32 µg/mL with E. coli 7 MP; 8 µg/mL with E. coli M 138; 8 µg/mL in the assay on E. coli M 36. Besides, the minimal inhibitory concentration (MIC) in the assay on E. coli M 49 was 32 µg/mL; in the assay with E. coli M 50, 8 µg/mL; in assay [1] it was greater than 32 µg/mL; in the assay on K. pneumoniae H 521, 8 µg/mL; with K. pneumoniae H 522, 8 µg/mL; in the assay with K. pneumoniae H 523, 8 µg/mL. Also, the MIC with K. pneumoniae H 525 was found to be 8 µg/mL.
With `O=C(NOCC1C[C@@H](N2CCNCC2)CN1)[C@@H]1CC[C@@H]2CN1C(=O)N2OS(=O)(=O)O` (stereo partly drawn) [Example 20], the MIC amounted to 8 µg/mL with E. coli 13351; 16 µg/mL in the assay on E. coli 13352; 8 µg/mL with E. coli 13353; 16 µg/mL in the assay with E. coli 7 MP; 4 µg/mL in the assay on E. coli M 138; 4 µg/mL in the assay with E. coli M 36. For the same compound, the MIC in the assay on E. coli M 49 was 16 µg/mL; in the assay on E. coli M 50 it was 8 µg/mL; in [1], greater than 32 µg/mL; in the assay on K. pneumoniae H 521, 8 µg/mL; in the assay on K. pneumoniae H 522 it was 8 µg/mL; with K. pneumoniae H 523, 8 µg/mL. Moreover, in the assay on K. pneumoniae H 525, the MIC was determined as 8 µg/mL.
In the case of `CN1CCN([C@H]2CNC(CONC(=O)[C@@H]3CC[C@@H]4CN3C(=O)N4OS(=O)(=O)O)C2)CC1` (stereo partly drawn) [Example 21], the minimum inhibitory concentration (MIC) in the assay with E. coli 13351 amounted to 8 µg/mL; in the assay on E. coli 13352 it was 8 µg/mL; in the assay with E. coli 13353 it was 4 µg/mL; with E. coli 7 MP, 16 µg/mL; with E. coli M 138, 4 µg/mL; in the assay with E. coli M 36, 4 µg/mL. Also, the MIC in the assay on E. coli M 49 is 16 µg/mL; in the assay with E. coli M 50 it was 8 µg/mL; in assay [1], greater than 32 µg/mL; in the assay on K. pneumoniae H 521, 8 µg/mL; with K. pneumoniae H 522, 4 µg/mL; in the assay with K. pneumoniae H 523 it was 4 µg/mL. In addition, in the assay with K. pneumoniae H 525, the MIC is 8 µg/mL.
